≈ marks a conversion by molar mass, not a printed value. Starred links: 1 amine or outer side, 2 acyl side, 3 side chain; linkers in the order of their positions; H or OH if unused. Positions of bridges follow the written chain, without caps; N, C: chain ends. Non-standard residues stand in square brackets, D forms with d. Residues, ends and D or L forms follow the SMILES beside them. *: point of attachment. Orn(4R-OH,5R-OCH2CH2NMe3+) = C[N+](C)(C)CCO[C@@H](N[*:3])[C@H](O)C[C@H](N[*:1])C(=O)[*:2]; pTerphenylCO(4''-OnC5H11) = CCCCCOc1ccc(-c2ccc(-c3ccc(C(=O)*)cc3)cc2)cc1; hTyr(3S-OH,4S-OH) = N[C@H](C(=O)O)[C@H](O)[C@@H](O)c1ccc(O)cc1; Pro(3S-OH,4S-Me) = C[C@H]1CN[C@H](C(=O)O)[C@H]1O; Hyp = O=C(O)[C@@H]1C[C@@H](O)CN1

Data set [1] concerns C. albicans ATCC 10231. Conditions: strain D, echinocandin-susceptible; YPAD broth, 24 h, 30 °C, OD600 reduced by ≥75%. On the procedure: (§1) Candida strains were streaked from glycerol stock onto YPAD agar plates and grown for 24 h at 30 °C. Colonies were suspended in 1 mL of PBS and diluted to an optical density of 2 × 10^–4 at 600 nm (OD600) in flat-bottom 96-well microplates (Corning) with YPAD broth containing dilutions of each tested compound at concentrations ranging from 64 to 0.008 μg/mL in twofold dilutions. Control wells with yeast cells but no drug and blank wells that contained only YPAD were prepared. MIC values (Table S2) were determined after 24 h at 30 °C by measuring the OD600 using a plate reader (Infinite M200 PRO, Tecan). MIC values were defined as the point at which the OD600 was reduced by ≥75% compared to the no-drug wells. Each concentration was tested in triplicate, and the results were confirmed by two independent sets of experiments.

The subject of data set [2] is C. albicans ATCC 24433. As to conditions: strain C, echinocandin-susceptible; YPAD broth, 24 h, 30 °C, OD600 reduced by ≥75%. Here is the method: as §1
For data set [3], the system named is C. albicans ATCC 90028. As to conditions: strain E, echinocandin-susceptible; YPAD broth, 24 h, 30 °C, OD600 reduced by ≥75%. On the procedure: as §1
Data set [4] has as its system C. albicans DPL1016 (DP-A15-10). Conditions: strain F, echinocandin resistant FKS mutation; YPAD broth, 24 h, 30 °C, OD600 reduced by ≥75%. Here is the method:
as §1

Data set [5] concerns C. albicans SC5314. Conditions: strain A, echinocandin-susceptible; YPAD broth, 24 h, 30 °C, OD600 reduced by ≥75%; triplicate, two independent experiments. On the procedure:
as §1

Data set [6] concerns C. albicans T-2068 (DP-C42). As to conditions: strain G, echinocandin resistant FKS mutation; YPAD broth, 24 h, 30 °C, OD600 reduced by ≥75%. Here is the method:
as §1

In data set [7] the test system is C. glabrata ATCC 2001. Conditions: strain I, echinocandin-susceptible; YPAD broth, 24 h, 30 °C, OD600 reduced by ≥75%. Here is the method:
as §1

The subject of data set [8] is C. glabrata ATCC 66032. As to conditions: strain J, echinocandin-susceptible; YPAD broth, 24 h, 30 °C, OD600 reduced by ≥75%. Here is the method:
as §1

In data set [9] the test system is C. glabrata ATCC 90030. Conditions: strain K, echinocandin-susceptible; YPAD broth, 24 h, 30 °C, OD600 reduced by ≥75%. On the procedure: as §1
The test system of data set [10] is C. glabrata EF1620. Conditions: strain H, echinocandin-susceptible; YPAD broth, 24 h, 30 °C, OD600 reduced by ≥75%. Here is the method:
as §1

Data set [11] concerns C. glabrata T-192 (1775). As to conditions: strain L, echinocandin-susceptible; YPAD broth, 24 h, 30 °C, OD600 reduced by ≥75%. Here is the method: as §1
Data set [12] has as its system C. glabrata TGL00275. As to conditions: strain M, echinocandin resistant FKS mutation; YPAD broth, 24 h, 30 °C, OD600 reduced by ≥75%. On the procedure:
as §1

Data set [13] relates to C. glabrata TGL00277. As to conditions: strain N, echinocandin resistant FKS mutation; YPAD broth, 24 h, 30 °C, OD600 reduced by ≥75%. Here is the method: as §1
In data set [14] the test system is C. albicans SN152. The data set is described as follows: MIC broth double-dilution assay. It counts as cell-based, Candida albicans. Conditions: strain B, echinocandin-susceptible; YPAD broth, 24 h, 30 °C, OD600 reduced by ≥75%. On the procedure: as §1, with “Colonies” for “Candida strains were streaked from glycerol stock onto YPAD agar plates and grown for 24 h at 30 °C. Colonies”

The conditions of data set [15]: incubation in human plasma for 44 h at 37 °C; cited from earlier work. The source says:
Intending to develop echinocandins with improved chemical stability under physiological conditions, Cidara Therapeutics developed rezafungin (RZF), a novel ANF derivative with distinctive pharmacokinetic and pharmacodynamic profiles, which entered phase III trials in October 2018 (Figure 1).[18]−[21] […] Instead of the daily intravenous administration regime used for the other three echinocandins, RZF can be administered intravenous ...

For data set [16], the system named is C. albicans SC5314 cells. Conditions: incubated with cells or lysates of C. albicans SC5314, 24 h, regardless of the media used (PBS, YPAD).
Experimental: C. albicans SC5314 cells were streaked from glycerol stocks onto YPAD agar plates and grown for 24 h at 30 °C. Colonies were grown in tubes in 3 mL of YPAD broth for 24 h at 30 °C with shaking. Cultures were diluted 1:50 and incubated in 5 mL of YPAD broth for 3 h at 30 °C with shaking until log-phase growth was observed. Cultures were then centrifuged (4000 rpm, 3 min), washed with PBS buffer, and resuspended in 1 mL of PBS buffer or YPAD. Cells were incubated with TMR-based probes (1 or 3) at a final concentration of 10 μM at 30 °C with shaking in the dark for 24 h. After washing three times with PBS, cells were resuspended in 75 μL of TNE buffer (10 mM Tris, 100 mM NaCl, and 1 mM ethylenediaminetetraacetic acid, pH 8.0) in a 1.5 mL Eppendorf tube, and 0.5 mm diameter beads were added to the yeast solution. The mixture was agitated on a vortex at maximum speed for 5 min. Next, 200 μL of 2% Triton X-100 in TNE buffer (v/v) was added to the agitated solution, and then the mixture was sonicated for 15 min. To clarify the yeast lysate, the mixture was centrifuged twice (16 000g, 20 min), and the supernatant was removed and filtered using a 0.22 μm syringe filter. The samples were analyzed using analytical reverse-phase HPLC at a 550 nm wavelength. HPLC conditions: mobile phase: acetonitrile in H2O (containing 0.1% trifluoroacetic acid (v/v)), gradient from 10 to 90%; flow rate: 1 mL/min; absorbance wavelength: 550 nm. Each sample was tested in two independent sets of experiments. The percentages of intact echinocandin were determined using the area calculation function available in the Hitachi Primaide Software and are presented as means (two replicates) ± standard deviation (SD).

On to `CCCCCOc1ccc(-c2ccc(-c3ccc(C(=O)N[C@H]4C[C@@H](O)[C@@H](OCCc5cn(CCCNc6ccc([N+](=O)[O-])c7nonc67)nn5)NC(=O)[C@@H]5[C@@H](O)[C@@H](C)CN5C(=O)[C@H]([C@@H](C)O)NC(=O)[C@H]([C@H](O)[C@@H](O)c5ccc(O)cc5)NC(=O)[C@@H]5C[C@@H](O)CN5C(=O)[C@H]([C@@H](C)O)NC4=O)cc3)cc2)cc1` [Probe 4], for which the MIC is 0.25 µg/mL (≈ 0.172 µM) in data set [1]; 0.25 µg/mL (≈ 0.172 µM) in [2]; 0.5 µg/mL (≈ 0.344 µM) in [3]; greater than 64 µg/mL in data set [4]; 0.25 µg/mL (≈ 0.172 µM) in [5]; greater than 64 µg/mL in data set [6]. The MIC in [7] is 0.5 µg/mL (≈ 0.344 µM); in [8] it was 0.5 µg/mL (≈ 0.344 µM); in data set [9] it was 0.5 µg/mL (≈ 0.344 µM); in data set [10], 0.5 µg/mL (≈ 0.344 µM); in [11], 0.25 µg/mL (≈ 0.172 µM); in data set [12] it was greater than 64 µg/mL. The MIC was greater than 64 µg/mL in data set [13] and 0.25 µg/mL (≈ 0.172 µM) in [14].

Take `CCCCCOc1ccc(-c2ccc(-c3ccc(C(=O)N[C@H]4C[C@@H](O)[C@@H](OCC[N+](C)(C)C)NC(=O)[C@@H]5[C@@H](O)[C@@H](C)CN5C(=O)[C@H]([C@@H](C)O)NC(=O)[C@H]([C@H](O)[C@@H](O)c5ccc(O)cc5)NC(=O)[C@@H]5C[C@@H](O)CN5C(=O)[C@H]([C@@H](C)O)NC4=O)cc3)cc2)cc1` [RZF, rezafungin, reference compound] ({pTerphenylCO(4''-OnC5H11)}-[Orn(4R-OH,5R-OCH2CH2NMe3+)]T[Hyp][hTyr(3S-OH,4S-OH)]T[Pro(3S-OH,4S-Me)]; lactam 1-C): the MIC was determined as 0.063 µg/mL in data set [1]; 0.031 µg/mL in [2]; 0.031 µg/mL in [3]; 8 µg/mL in data set [4]; 0.016 µg/mL in data set [5]; 4 µg/mL in data set [6]. Moreover, the MIC amounted to 0.063 µg/mL in [7]; 0.031 µg/mL in data set [8]; 0.031 µg/mL in data set [9]; 0.016 µg/mL in data set [10]; 0.016 µg/mL in data set [11]; 8 µg/mL in data set [12]. The results for the MIC in [13] and in data set [14] were greater than 64 µg/mL and 0.031 µg/mL, respectively. The “percent of intact drug” value in data set [15] is 91%.

In the case of `CCCCCOc1ccc(-c2ccc(-c3ccc(C(=O)N[C@H]4C[C@@H](O)[C@@H](OCCc5cn(CCCNC(=O)c6ccc(-c7c8ccc(=[N+](C)C)cc-8oc8cc(N(C)C)ccc78)c(C(=O)[O-])c6)nn5)NC(=O)[C@@H]5[C@@H](O)[C@@H](C)CN5C(=O)[C@H]([C@@H](C)O)NC(=O)[C@H]([C@H](O)[C@@H](O)c5ccc(O)cc5)NC(=O)[C@@H]5C[C@@H](O)CN5C(=O)[C@H]([C@@H](C)O)NC4=O)cc3)cc2)cc1` [Probe 3], in data set [16], the decomposition result is “no significant decomposition”.

As to `CC[C@H](C)C[C@H](C)CCCCCCCCC(=O)N[C@H]1C[C@@H](O)[C@@H](NCCN)NC(=O)[C@@H]2[C@@H](O)CCN2C(=O)[C@H]([C@H](O)CCN)NC(=O)[C@H]([C@H](O)[C@@H](O)c2ccc(O)cc2)NC(=O)[C@@H]2C[C@@H](O)CN2C(=O)[C@H]([C@@H](C)O)NC1=O` [CSF, caspofungin, reference compound], the MIC in data set [1] came to 0.063 µg/mL (≈ 0.0576 µM); in [2], 0.031 µg/mL (≈ 0.0284 µM); in [3], 0.063 µg/mL (≈ 0.0576 µM); in [4], 32 µg/mL (≈ 29.3 µM); in data set [5] it was 0.031 µg/mL (≈ 0.0284 µM); in [6] it was 16 µg/mL (≈ 14.6 µM). In addition, the minimal inhibitory concentration (MIC) was 0.063 µg/mL (≈ 0.0576 µM) in data set [7]; 0.063 µg/mL (≈ 0.0576 µM) in [8]; 0.125 µg/mL (≈ 0.114 µM) in data set [9]; 0.031 µg/mL (≈ 0.0284 µM) in data set [10]; 0.016 µg/mL (≈ 0.0146 µM) in data set [11]; 16 µg/mL (≈ 14.6 µM) in data set [12]. Further, the MIC was greater than 64 µg/mL in [13] and 0.031 µg/mL (≈ 0.0284 µM) in data set [14].
